Results as given in patent publication US7135307B2, “Gamma three protease” (Merck & Co., Inc., priority 2001, dated 2006).
Where a SMILES comes first, the peptide text is derived from it. [ ]: non-standard residue; d: D form. The star is where a group is joined. Sta = CC(C)C[C@H](N)[C@@H](O)CC(=O)O; Isovaleryl = CC(C)CC(=O)*

Legend:
Format in all cases: biochemical
[1] = test system: γ-secretase activity associated with presenilin-1/presenilin-2; experiment: γ-secretase activity in HeLa S3 cell membranes, C100Flag substrate, ECL detection of Aβ
[2] = test system: γ3 protease; experiment: γ3 protease activity in HeLa S3 cell membranes, C100Flag substrate, ECL detection of Aβ
Description: The source of γ3 protease was a membrane preparation from HeLa S3 cells prepared as in Example 9. The production of the γ3 protease substrate and the conditions for cleavage are described in Example 10. The procedure for determining whether the substrate had been cleaved by γ3 protease was as in Example 6.
(§1) Aβ peptides were detected using a sandwich assay employing an antibody to capture the peptide and an antibody to detect the presence of the peptide. Detection was achieved by using electrochemiluminescence (ECL) (Yang et al., 1994, Bio/Technology 12:193–194; Khorkova et al., 1998, J. Neurosci. Meth. 82:159–166) and an Origen 1.5 Analyzer (Igen Inc., Gaithersburg, Md.).
(§2) Capture was performed using the 4G8 murine monoclonal antibody (Senetek PLC, Maryland Heights, Mo.). The 4G8 murine monoclonal antibody binds an epitope in the Aβ peptide (about amino acids 18–21 of SEQ.ID.NO.:3) that is immediately distal to the α-secretase cleavage site. The 4G8 monoclonal antibody was biotinylated with Biotin-LC-Sulfo-NHS-Ester (Igen Inc., Gaithersburg, Md.).
Detection was achieved using the G2-10 murine monoclonal antibody and the FCA3542 rabbit antibody. […]
The G2-10 and FCA3542 antibodies were ruthenylated with TAG-NHS Ester (Igen Inc., Gaithersburg, Md.). Aβ(x-40) was detected with biotinylated 4G8 and ruthenylated G2-10. Aβ(x-42) was detected with biotinylated 4G8 and ruthenylated FCA3542. […]

[3] = test system: γ-secretase activity associated with presenilins 1 and 2; experiment: γ-secretase activity in ES-PBD18 membranes (wild-type mouse embryonic stem cells), generation of Aβ1-40 and Aβ1-42; settings: 1 μM inhibitor, FIG. 2A, 2B
Description: The presence of γ3 protease activity having a pH optimum of about 6 is clearly seen. […] Again, the presence of γ3 protease activity having a pH optimum of about 6 is clearly seen. The source of γ3 protease was ES-PBD18 membranes. ES-PBD18 membranes were prepared from wild-type mouse embryonic stem cells according to the procedure of Example 11.
(§3) Another method for product detection, employing electrochemiluminescence with a capture antibody and an antibody specific for either Aβ1-40 or Aβ1-42, is described in Example 6 below.
as §1
• 1. […]

[4] = test system: γ3 protease; experiment: Inhibition of γ3 protease production of Aβ peptides by pepstatin A, ECL detection
Description: as §3, §1, §2
Detection was achieved using the G2-10 murine monoclonal antibody and the FCA3542 rabbit antibody. The G2-10 murine monoclonal antibody (provided by K. Beyreuther, University of Heidelberg, Germany) binds the C-terminus that is exposed after γ3 protease-mediated cleavage to generate amino acid 40 of the Aβ1-40 peptide. (Ida et al., 1996, J. Biol. Chem. 271:22908–22914). The FCA3542 rabbit antibody (provided by F. Checler, IPMC du CNRS, Valbonne, France) binds the C-terminus that is exposed after γ3 protease-mediated cleavage to generate amino acid 42 of the Aβ1-42 peptide. (Barelli et al., 1997, Mol. Med. 3:695–707.)
The G2-10 and FCA3542 antibodies were ruthenylated with TAG-NHS Ester (Igen Inc., Gaithersburg, Md.). Aβ(x-40) was detected with biotinylated 4G8 and ruthenylated G2-10. Aβ(x-42) was detected with biotinylated 4G8 and ruthenylated FCA3542.

SMILES | inhibition of the activity of the γ secretase complex containing presenilin-1 or presenilin-2 ([1]; general statement) | block of γ-secretase activity ([1]; pH 7.0 (pH optimum for presenilin-1/presenilin-2 associated γ-secretase), HeLa S3 membranes, FIG. 1) | susceptibility of γ3 protease activity to inhibition ([2]; general statement) | γ-secretase-type activity remaining in the presence of inhibitor (γ3 protease) ([2]; pH 6.0 (pH optimum for γ3 protease), HeLa S3 membranes, FIG. 1) | inhibition of γ-secretase activity associated with presenilins 1 and 2 [3] | inhibition of production of Aβ1-40 by γ3 protease ([4]; FIG. 3A) | inhibition of production of Aβ1-42 by γ3 protease ([4]; FIG. 3B) | inhibition of γ3 protease activity ([4]; general statement (aspartyl class protease))
CC(C)C[C@H](NC(=O)[C@H](Cc1ccccc1)C[C@@H](O)[C@H](Cc1ccccc1)NC(=O)OC(C)(C)C)C(=O)N[C@@H](Cc1ccccc1)C(N)=O [L-685,458, {1S-Benzyl-4-R-[1-(1S-carbamoyl-2-phenylethylcarbamoyl)-1S-3-methylbutylcarbamoyl]-2R-hydroxy-5-phenylpentyl}carbamic acid tert-butyl ester] | inhibited | essentially completely block | not susceptible to inhibition | significant γ-secretase activity remains | essentially completely inhibit |  |  | 
CC(C)CC(=O)N[C@H](C(=O)N[C@H](C(=O)N[C@@H](CC(C)C)[C@@H](O)CC(=O)N[C@@H](C)C(=O)N[C@@H](CC(C)C)[C@@H](O)CC(=O)O)C(C)C)C(C)C [pepstatin A] (Isovaleryl-VV[Sta]A[Sta]-OH) |  |  |  |  |  | inhibits | inhibits | inhibited
